This is an account of results in US9988400B2 (Genentech, Inc., priority 2013, dated 2018).

By EC50 is commonly meant the concentration giving half of the maximal effect.

In the assay the target is T1, HEK cells stably transfected with tetracycline inducible hNR1 and hNR2A (Homo sapiens, UniProt Q05586+Q12879).
T1 construct: expressed in transfected cells; host or cells: HEK cells, stably transfected, tetracycline/doxycycline inducible
T1 sequence (Q12879 23-1464, other chains not shown): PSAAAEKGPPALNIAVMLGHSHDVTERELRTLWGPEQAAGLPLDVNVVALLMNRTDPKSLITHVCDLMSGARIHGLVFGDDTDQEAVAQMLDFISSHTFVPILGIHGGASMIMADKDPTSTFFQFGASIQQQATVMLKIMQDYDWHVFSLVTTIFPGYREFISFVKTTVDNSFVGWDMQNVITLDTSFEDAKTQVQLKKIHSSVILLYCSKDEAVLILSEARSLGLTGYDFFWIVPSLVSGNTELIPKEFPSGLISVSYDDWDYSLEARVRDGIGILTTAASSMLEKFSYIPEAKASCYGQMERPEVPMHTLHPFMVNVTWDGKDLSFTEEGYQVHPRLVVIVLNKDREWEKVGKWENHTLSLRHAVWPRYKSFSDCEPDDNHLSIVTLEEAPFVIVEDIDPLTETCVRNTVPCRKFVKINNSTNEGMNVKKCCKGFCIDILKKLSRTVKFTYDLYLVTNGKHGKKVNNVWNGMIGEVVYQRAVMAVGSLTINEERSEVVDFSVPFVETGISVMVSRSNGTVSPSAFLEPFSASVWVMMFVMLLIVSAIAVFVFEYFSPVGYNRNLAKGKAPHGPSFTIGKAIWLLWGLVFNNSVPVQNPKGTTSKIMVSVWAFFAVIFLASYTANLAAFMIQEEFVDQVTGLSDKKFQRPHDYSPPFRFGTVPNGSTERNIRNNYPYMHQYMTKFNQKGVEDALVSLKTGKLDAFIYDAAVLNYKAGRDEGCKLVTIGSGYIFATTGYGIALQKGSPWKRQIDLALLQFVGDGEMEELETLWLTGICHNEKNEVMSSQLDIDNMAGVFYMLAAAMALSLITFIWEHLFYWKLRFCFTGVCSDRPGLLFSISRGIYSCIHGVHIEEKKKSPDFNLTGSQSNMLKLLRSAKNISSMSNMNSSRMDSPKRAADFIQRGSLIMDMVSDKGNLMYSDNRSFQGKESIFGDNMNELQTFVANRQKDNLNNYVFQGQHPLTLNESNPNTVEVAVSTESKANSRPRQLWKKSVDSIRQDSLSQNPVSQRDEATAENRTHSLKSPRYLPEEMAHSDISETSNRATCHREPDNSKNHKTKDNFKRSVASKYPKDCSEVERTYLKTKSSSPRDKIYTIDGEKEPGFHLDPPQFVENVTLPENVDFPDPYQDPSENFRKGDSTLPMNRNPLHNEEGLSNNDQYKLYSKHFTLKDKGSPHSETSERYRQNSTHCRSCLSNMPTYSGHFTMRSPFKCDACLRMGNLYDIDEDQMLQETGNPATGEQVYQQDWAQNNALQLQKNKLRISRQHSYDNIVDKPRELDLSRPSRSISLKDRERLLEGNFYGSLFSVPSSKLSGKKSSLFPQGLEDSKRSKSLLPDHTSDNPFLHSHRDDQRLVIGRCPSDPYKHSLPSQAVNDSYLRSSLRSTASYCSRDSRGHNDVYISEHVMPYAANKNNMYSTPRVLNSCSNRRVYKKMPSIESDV
The experiment in a line: Assay 1: Cell-Based Assay, cytosolic calcium response to positive allosteric modulators (with 30 μM glycine and 300 nM L-glutamate, EC30). Conditions: Table 3; cytosolic calcium response, with 30 μM glycine and 300 nM L-glutamate (EC30); — = no plateau was reached. The method in brief: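 Cells induced 24 h with 7.5 μg mL^−1 doxycycline plus 500 μM (+)-ketamine, loaded 60 min at 37 °C with calcium dye in Mg-free HBSS (1.8 mM Ca, probenecid, 10 μM (+)-ketamine, pH 7.15). Peak RFU over 5 min after compound addition, scaled to 100 μM L-glutamate (100%) and 0 μM (0%); four-parameter Hill fit for EC50, max % if no plateau.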
In the case of `CCc1sc2nc(Cn3nc(C(F)(F)F)cc3Cl)cc(=O)n2c1-c1cccnc1` [compound 202, 7-[[5-chloro-3-(trifluoromethyl)pyrazol-1-yl]methyl]-2-ethyl-3-(3-pyridyl)thiazolo[3,2-a]pyrimidin-5-one], the EC50 worked out at 23.9 µM. As for `Cc1sc2nc(Cn3nc(C(F)(F)F)cc3Cl)cc(=O)n2c1C(O)C(F)(F)F` (centres unmarked) [compound 203, 7-[[5-chloro-3-(trifluoromethyl)pyrazol-1-yl]methyl]-2-methyl-3-(2,2,2-trifluoro-1-hydroxy-ethyl)thiazolo[3,2-a]pyrimidin-5-one], the figure is 5.85 µM; as for `CCNC(=O)c1c(C)sc2nc(CN(CC)c3ccc(Br)cn3)cc(=O)n12` [compound 204, 7-[[(5-bromo-2-pyridyl)-ethyl-amino]methyl]-N-ethyl-2-methyl-5-oxo-thiazolo[3,2-a]pyrimidine-3-carboxamide], 5.12 µM.

For the molecule `CCNC(=O)c1c(C(F)(F)F)sc2nc(CN(CC)c3ccc(F)cn3)cc(=O)n12` [compound 205, N-ethyl-7-[[ethyl-(5-fluoro-2-pyridyl)amino]methyl]-5-oxo-2-(trifluoromethyl)thiazolo[3,2-a]pyrimidine-3-carboxamide], the EC50 came to 1.12 µM. As for `O=c1cc(Cn2nc(C(F)(F)F)cc2Cl)nc2sc(C(F)(F)F)c(N3CCC3)n12` [compound 206, 3-(Azetidin-1-yl)-7-[[5-chloro-3-(trifluoromethyl)pyrazol-1-yl]methyl]-2-(trifluoromethyl)thiazolo[3,2-a]pyrimidin-5-one], the figure is 7.19 µM; as for `COc1cc(C(F)(F)F)nn1Cc1cc(=O)n2c(C3CC3C#N)c(C)sc2n1` (centres unmarked) [compound 209, 2-[7-[[5-methoxy-3-(trifluoromethyl)pyrazol-1-yl]methyl]-2-methyl-5-oxo-thiazolo[3,2-a]pyrimidin-3-yl]cyclopropanecarbonitrile], 0.0666 µM; as for `COc1cc(C(F)(F)F)n(Cc2cc(=O)n3c(C4CC4C#N)c(C)sc3n2)n1` (centres unmarked) [compound 210, 2-[7-[[3-methoxy-5-(trifluoromethyl)pyrazol-1-yl]methyl]-2-methyl-5-oxo-thiazolo[3,2-a]pyrimidin-3-yl]cyclopropanecarbonitrile], 8.92 µM. As for `CCc1sc2nc(Cn3nc(C(F)(F)F)cc3Cl)cc(=O)n2c1C(C)=O` [compound 211, 3-acetyl-7-[[5-chloro-3-(trifluoromethyl)pyrazol-1-yl]methyl]-2-ethyl-thiazolo[3,2-a]pyrimidin-5-one], the figure is 0.31 µM; as for `CCc1sc2nc(Cn3nc(Cl)cc3C(F)(F)F)cc(=O)n2c1C(C)=O` [compound 212, 3-acetyl-7-[[3-chloro-5-(trifluoromethyl)pyrazol-1-yl]methyl]-2-ethyl-thiazolo[3,2-a]pyrimidin-5-one], 5.84 µM; as for `CCc1sc2nc(Cn3nc(C(F)(F)F)cc3Cl)cc(=O)n2c1C1CC1C#N` (centres unmarked) [compound 213, 2-[7-[[5-chloro-3-(trifluoromethyl)pyrazol-1-yl]methyl]-2-ethyl-5-oxo-thiazolo[3,2-a]pyrimidin-3-yl]cyclopropanecarbonitrile], 0.066 µM.

Turning to `CCc1sc2nc(Cn3nc(Cl)cc3C(F)(F)F)cc(=O)n2c1C1CC1C#N` (centres unmarked) [compound 214, 2-[7-[[3-chloro-5-(trifluoromethyl)pyrazol-1-yl]methyl]-2-ethyl-5-oxo-thiazolo[3,2-a]pyrimidin-3-yl]cyclopropanecarbonitrile], the concentration for a half-maximal effect (EC50) was 0.18 µM. As for `Cc1sc2nc(Cn3nc(C(F)(F)F)cc3Cl)cc(=O)n2c1Br` [compound 215, 3-bromo-7-[[5-chloro-3-(trifluoromethyl)pyrazol-1-yl]methyl]-2-methyl-thiazolo[3,2-a]pyrimidin-5-one], the figure is 0.0911 µM; as for `Cc1sc2nc(Cn3nc(Cl)cc3C(F)(F)F)cc(=O)n2c1Br` [compound 216, 3-bromo-7-[[3-chloro-5-(trifluoromethyl)pyrazol-1-yl]methyl]-2-methyl-thiazolo[3,2-a]pyrimidin-5-one], 0.0594 µM; as for `COc1sc2nc(Cn3nc(C(F)(F)F)cc3Cl)cc(=O)n2c1Cl` [compound 217, 3-chloro-7-[[5-chloro-3-(trifluoromethyl)pyrazol-1-yl]methyl]-2-methoxy-thiazolo[3,2-a]pyrimidin-5-one], 4.74 µM. As for `COc1sc2nc(Cn3nc(Cl)cc3C(F)(F)F)cc(=O)n2c1Cl` [compound 218, 3-chloro-7-[[3-chloro-5-(trifluoromethyl)pyrazol-1-yl]methyl]-2-methoxy-thiazolo[3,2-a]pyrimidin-5-one], the figure is 83 µM; as for `CSc1c(C(F)(F)F)sc2nc(Cn3nc(C(F)(F)F)cc3Cl)cc(=O)n12` [compound 219, 7-[[5-chloro-3-(trifluoromethyl)pyrazol-1-yl]methyl]-3-methylsulfanyl-2-(trifluoromethyl)thiazolo[3,2-a]pyrimidin-5-one], 10.5 µM; as for `CCN(Cc1cc(=O)n2c(C3CC3(C#N)CO)csc2n1)c1ccc(F)cc1` (centres unmarked) [compound 220, 2-[7-[(N-Ethyl-4-fluoro-anilino)methyl]-5-oxo-thiazolo[3,2-a]pyrimidin-3-yl]-1-(hydroxymethyl)cyclopropanecarbonitrile], 47 µM. As for `Cc1sc2nc(Cn3nc(C(F)(F)F)cc3Cl)cc(=O)n2c1CC1CC1` [compound 221, 7-[[5-chloro-3-(trifluoromethyl)pyrazol-1-yl]methyl]-3-(cyclopropylmethyl)-2-methyl-thiazolo[3,2-a]pyrimidin-5-one], the figure is 3.76 µM; as for `Cc1sc2nc(Cn3nc(C(F)(F)F)cc3Cl)cc(=O)n2c1C(C)CO` (centres unmarked) [compound 222, 7-[[5-Chloro-3-(trifluoromethyl)pyrazol-1-yl]methyl]-3-(2-hydroxy-1-methyl-ethyl)-2-methyl-thiazolo[3,2-a]pyrimidin-5-one], 2.92 µM. Turning to `Cc1sc2nc(Cn3nc(Cl)cc3C(F)(F)F)cc(=O)n2c1C(C)CO` (centres unmarked) [compound 223, 7-[[3-chloro-5-(trifluoromethyl)pyrazol-1-yl]methyl]-3-(2-hydroxy-1-methyl-ethyl)-2-methyl-thiazolo[3,2-a]pyrimidin-5-one], the concentration giving a half-maximal response (EC50) came out at 10.9 µM.

Consider `Cc1sc2nc(Cn3nc(C(F)(F)F)cc3Cl)cc(=O)n2c1C(=O)C1CC1` [compound 224, 7-[[5-chloro-3-(trifluoromethyl)pyrazol-1-yl]methyl]-3-(cyclopropanecarbonyl)-2-methyl-thiazolo[3,2-a]pyrimidin-5-one], for which the half-maximal effective concentration (EC50) is 0.366 µM. As for `O=c1cc(Cn2nc(C(F)(F)F)cc2Cl)nc2scc(Br)n12` [compound 225, 3-bromo-7-[[5-chloro-3-(trifluoromethyl)pyrazol-1-yl]methyl]thiazolo[3,2-a]pyrimidin-5-one], the figure is 8.69 µM; as for `O=c1cc(Cn2nc(Cl)cc2C(F)(F)F)nc2scc(Br)n12` [compound 226, 3-bromo-7-[[3-chloro-5-(trifluoromethyl)pyrazol-1-yl]methyl]thiazolo[3,2-a]pyrimidin-5-one], 1.42 µM; as for `Cc1sc2nc(Cn3nc(N)cc3Cl)cc(=O)n2c1Br` [compound 227, 7-[(3-amino-5-chloro-pyrazol-1-yl)methyl]-3-bromo-2-methyl-thiazolo[3,2-a]pyrimidin-5-one], 13 µM. As for `Cc1sc2nc(Cn3nc(Cl)cc3N)cc(=O)n2c1Br` [compound 228, 7-[(5-amino-3-chloro-pyrazol-1-yl)methyl]-3-bromo-2-methyl-thiazolo[3,2-a]pyrimidin-5-one], the figure is 32.2 µM. For `Cc1sc2nc(Cn3nc(C(F)(F)F)cc3Cl)cc(=O)n2c1CC#N` [compound 229, 2-[7-[[5-chloro-3-(trifluoromethyl)pyrazol-1-yl]methyl]-2-methyl-5-oxo-thiazolo[3,2-a]pyrimidin-3-yl]acetonitrile], the EC50 came to 6.46 µM. As for `CCNC(=O)c1c(C(F)(F)F)sc2nc(CN(C)c3ccc(F)cn3)cc(=O)n12` [compound 230, N-ethyl-7-[[(5-fluoro-2-pyridyl)-methyl-amino]methyl]-5-oxo-2-(trifluoromethyl)thiazolo[3,2-a]pyrimidine-3-carboxamide], the figure is 6.86 µM. For the molecule `O=c1cc(Cn2nc(C(F)(F)F)cc2Cl)nc2sc(C(F)(F)F)c(N3CC(F)(F)C3)n12` [compound 231, 7-[[5-chloro-3-(trifluoromethyl)pyrazol-1-yl]methyl]-3-(3,3-difluoroazetidin-1-yl)-2-(trifluoromethyl)thiazolo[3,2-a]pyrimidin-5-one], the half-maximal effective concentration (EC50) is 61.3 µM. As for `COc1sc2nc(Cn3nc(C(F)(F)F)cc3Cl)cc(=O)n2c1-c1cccnc1` [compound 233, 7-[[5-chloro-3-(trifluoromethyl)pyrazol-1-yl]methyl]-2-methoxy-3-(3-pyridyl)thiazolo[3,2-a]pyrimidin-5-one], the concentration giving a half-maximal response (EC50) is 6.14 µM.

Consider `Cc1sc2nc(Cn3nc(C(F)(F)F)cc3Br)cc(=O)n2c1C1CC1C#N` (centres unmarked) [compound 234, 2-[7-[[5-bromo-3-(trifluoromethyl)pyrazol-1-yl]methyl]-2-methyl-5-oxo-thiazolo[3,2-a]pyrimidin-3-yl]cyclopropanecarbonitrile], for which the EC50 was determined as 0.0342 µM. As for `O=c1cc(Cn2nc(C(F)(F)F)cc2Cl)nc2scc(Cl)n12` [compound 235, 3-chloro-7-[[5-chloro-3-(trifluoromethyl)pyrazol-1-yl]methyl]thiazolo[3,2-a]pyrimidin-5-one], the figure is 21.2 µM; as for `O=c1cc(Cn2nc(Cl)cc2C(F)(F)F)nc2scc(Cl)n12` [compound 236, 3-chloro-7-[[3-chloro-5-(trifluoromethyl)pyrazol-1-yl]methyl]thiazolo[3,2-a]pyrimidin-5-one], 44.5 µM.
